Columns and labels:
DDPAC SRE RNA = test: In vitro competitive Chem-CLIP (C-Chem-CLIP), DDPAC SRE RNA; conditions: 3 at 1.5 μM, read-out: IC50, competition of the binding of 3
Protocol: In Vitro Chemical Cross-linking and Isolation by Pull Down (Chem-CLIP) and Competitive Chem-CLIP (C-Chem-CLIP). Growth medium [Dulbecco's modified eagle medium (DMEM; corning, 10-013-CM) with 1× Glutagro (corning)] and 10% (v/v) fetal bovine serum (FBS; Sigma, 12003C) was inactivated by heating at 95° C. for 15 min and slowly cooling to room temperature. Approximately 10,000 counts of 32P 5′-end labeled tau WT, DDPAC, WT+I17T, or DDPAC+I17T RNA were folded in 10 μL growth medium by heating at 65° C. for 5 min and slowly cooling to room temperature. Chem-CLIP probe 3 or negative control probe 4 was then added into the folded RNA in a total volume of 20 μL, and the mixtures were incubated at 37° C. for 1 h. For C-Chem-CLIP, dilutions of competing compound 2 were incubated with RNA for 30 min before adding 3. […]
The Chem-CLIP probe 3 or control probe 4 was then clicked to disulfide biotin azide (2 μL of 10 mM solution prepared in DMSO solution per sample; Click Chemistry Tools, catalog no. 1168-10). […] The radioactive signal from bound RNAs (on the beads) and unbound RNAs (in the wash buffer) was measured by using a Beckman Coulter LS6500 Liquid Scintillation Counter as Rbound and Runbound. Enrichment was calculated as the percentage of radiolabeled RNA captured by beads calculated as Rbound/(Rbound+Runbound).

[1] = Plasma protein binding by equilibrium dialysis; type: in vitro ADME; conditions: 37° C., 6 h (2 at 5 μM), read-out: free fraction in plasma
Protocol: Plasma and brain binding. Plasma protein binding was determined by equilibrium dialysis using a Thermo Scientific™ RED Device per the manufacturer's protocol. Each sample was prepared by addition of 2 into 100 μL plasma with final concentration of 5 μM (0.1% (v/v) DMSO). 1×PBS was used as dialysis buffer and was added into the buffer chamber. The plate was incubated with shaking at 37° C. for 6 h. The concentration of 2 in the plasma and buffer compartments was determined as described in Quantitation of 2 in Mouse Plasma and Brain. The free fraction was calculated as [buffer]/[plasma].

[2] = tested on: WT I17T MAPT exon 10 mini-gene luciferase reporter; test: Luciferase reporter assay, WT I17T mutant mini-gene in HeLa cells; type: cell-based; conditions: Homo sapiens, 48 h, 5 μM (highest dose), read-out: reduction of luciferase activity
Protocol: Luciferase-reporter Assay to Study Exon 10 Alternative Splicing. The exon 10 mini-genes, both WT and DDPAC and mutant thereof, fused to firefly luciferase, have been previously described.^18 HeLa cells were seeded in 60 mm diameter dishes and incubated for 12-16 h to 70% confluency. They were then transfected with WT, WT+I17T, DDPAC, or DDPAC+I17T luciferase reporter minigenes using JetPrime (Polyplus Transfection) per the manufacturer's recommended protocol and incubated for 4 h. After transfection, the cells were collected by trypsinization and re-seeded in 96-well plates at 0.2×10^5 cells per well, followed by treatment of compounds after 4 h. Compound stocks prepared in DMSO were diluted in growth medium and added to cells with final DMSO concentration at 0.1% (v/v). After a 48 h treatment period, the cells were washed with 1× DPBS. Each well was added with a mixture of 10 μL WST-1 reagent and 90 μL of growth medium. After incubation at 37° C. for 45 min, absorbance was measured at 450 and 690 nm. A690 as background was subtracted from A450 to obtain A450′. […] The plate was incubated at room temperature for 20 min and the luminescence was measured with a […] plate reader (1000 ms integration time). The resulted luminescence was normalized to A450′.

IC50 (DDPAC SRE RNA): ~2000 nM
fraction unbound at 6 h [1]: 0.089 ± 0.009
Structure (SMILES): COc1cc(N)ncc1CCCN(C)CCCn1cnc2c3ccccc3n(C)c2c1=O [Compound 2, 3-(3-((3-(6-amino-4-methoxypyridin-3-yl)propyl)(methyl)amino)propyl)-5-methyl-3,5-dihydro-4H-pyrimido[5,4-b]indol-4-one]
inhibition at 5 µM [2]: ~15%
